What is called IC50 is the concentration at which inhibition is half-maximal. The EC50 is the concentration that produces a half-maximal response. A word on the CC50: it is the concentration giving 50% cytotoxicity. The term AC50 denotes the concentration at which the activity in the assay is half-maximal.

Activity calls are given as the source filed them.

For one experiment, the target named is Genome polyprotein (dengue virus type 2, UniProt P29990). Briefly: flavivirus cap methylation enzyme inhibition – biochemical, confirmation dose response, primary screen (AID 588689). It is filed as functional.
Chain of Genome polyprotein (P29990 2492-3391 limits assumed): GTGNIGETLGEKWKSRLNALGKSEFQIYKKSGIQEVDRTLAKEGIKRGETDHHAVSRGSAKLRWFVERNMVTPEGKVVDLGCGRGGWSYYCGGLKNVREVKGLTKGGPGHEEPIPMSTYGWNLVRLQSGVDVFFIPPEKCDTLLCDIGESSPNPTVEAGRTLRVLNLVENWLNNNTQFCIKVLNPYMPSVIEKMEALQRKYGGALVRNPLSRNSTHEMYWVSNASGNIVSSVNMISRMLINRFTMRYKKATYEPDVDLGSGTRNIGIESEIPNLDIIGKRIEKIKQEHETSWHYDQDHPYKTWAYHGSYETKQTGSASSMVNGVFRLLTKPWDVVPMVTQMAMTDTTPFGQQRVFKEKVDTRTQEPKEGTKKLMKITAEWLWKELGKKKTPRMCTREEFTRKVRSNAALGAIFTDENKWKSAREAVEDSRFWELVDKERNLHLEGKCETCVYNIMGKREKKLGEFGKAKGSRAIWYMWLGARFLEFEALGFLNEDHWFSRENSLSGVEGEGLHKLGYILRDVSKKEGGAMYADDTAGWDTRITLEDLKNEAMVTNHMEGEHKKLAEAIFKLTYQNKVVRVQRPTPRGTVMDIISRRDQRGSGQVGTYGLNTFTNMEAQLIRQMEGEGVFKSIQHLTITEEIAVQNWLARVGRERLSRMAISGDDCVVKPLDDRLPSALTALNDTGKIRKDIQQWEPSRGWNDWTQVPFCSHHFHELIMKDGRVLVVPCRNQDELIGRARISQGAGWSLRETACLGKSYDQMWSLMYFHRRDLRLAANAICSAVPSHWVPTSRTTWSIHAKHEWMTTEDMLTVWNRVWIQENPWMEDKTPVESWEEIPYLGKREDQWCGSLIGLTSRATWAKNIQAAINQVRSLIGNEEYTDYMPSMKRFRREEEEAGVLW
Experiment [1] relates to BJ. Briefly: BJ-TERT fibroblast viability loss – cell-based, RAS-independent, luminescence, dose response (AID 1933). It is filed as functional. Conditions: Homo sapiens.
For experiment [2], the system named is BJ. Briefly: cells. Particulars: Homo sapiens. Format: functional, cell-based.
Experiment [3] relates to BJ. Briefly: BJ-TERT-LT-ST fibroblast viability loss – cell-based, RAS-independent, luminescence, dose response (AID 1935).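 Further: BJ fibroblasts immortalized with TERT plus LT and ST oncogenes.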 Format: functional. Conditions: Homo sapiens.
Experiment [4] can be described thus: DRD fibroblast viability loss – cell-based, non-viral oncogenic, luminescence, dose response (AID 1934). Format: functional. Conditions: Homo sapiens.
Experiment [5] has as its system Vero. The experiment is described as follows: cells. Particulars: Chlorocebus sabaeus. It is filed as functional, cell-based.
Experiment [6] concerns Vero. The experiment is described as follows: cells. It is filed as functional. Conditions: Chlorocebus sabaeus.
Experiment [7] has as its target Beta-2 adrenergic receptor (Homo sapiens, UniProt P07550). The experiment is described as follows: ADRB2 activation measured by internalization – cell-based, FAP fluorogen, flow cytometry, cherry pick 1, dose response (AID 588763). It is filed as functional.
Experiment [8] in a line: NIH-3T3 fibroblast cytotoxicity, dose response, cytotoxicity control, cell-based, fluorescence, Alamar Blue, secondary assay (AID 2327).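 Further: NIH-3T3 mouse fibroblasts cultured with fluconazole at 8 µg/mL.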 It is filed as functional.
Experiment [9] in a line: fluconazole-exposed Candida albicans growth modulators – fluorescence, retest, confirmation (AID 2467). It is filed as functional, cell-based.
Experiment [10] concerns the target T1, High affinity choline transporter 1 (Homo sapiens, UniProt Q9GZV3).
T1 sequence (Q9GZV3 whole entry): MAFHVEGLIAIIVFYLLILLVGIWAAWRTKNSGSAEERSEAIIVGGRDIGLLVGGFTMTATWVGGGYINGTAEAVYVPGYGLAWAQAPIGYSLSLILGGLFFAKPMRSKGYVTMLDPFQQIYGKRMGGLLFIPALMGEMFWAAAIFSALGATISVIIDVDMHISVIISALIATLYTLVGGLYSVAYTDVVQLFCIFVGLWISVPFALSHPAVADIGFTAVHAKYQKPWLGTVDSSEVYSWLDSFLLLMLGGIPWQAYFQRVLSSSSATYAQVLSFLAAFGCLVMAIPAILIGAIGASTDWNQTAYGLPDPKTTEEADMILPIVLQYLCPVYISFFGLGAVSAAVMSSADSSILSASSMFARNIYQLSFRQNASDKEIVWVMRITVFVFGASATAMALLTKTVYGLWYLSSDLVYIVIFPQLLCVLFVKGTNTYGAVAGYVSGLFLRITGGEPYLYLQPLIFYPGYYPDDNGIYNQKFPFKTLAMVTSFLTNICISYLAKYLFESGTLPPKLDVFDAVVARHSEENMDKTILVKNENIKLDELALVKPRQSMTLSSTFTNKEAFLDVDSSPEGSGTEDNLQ
The experiment is described as follows: human choline transporter blockers, potency – cell-based, 5-point CRC, membrane potential dye, dose response (AID 504840). It is filed as functional.

A further experiment relates to INS1. Briefly: INS-1E survival protection against cytokine death – cell-based, luminescence, retest, dose response (AID 449756).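 Further: cell death triggered by IL-1 beta plus TNF-alpha plus IFN-gamma mixture; protective hits raise ATP signal compared with cytokine alone wells.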 Conditions: Rattus norvegicus. It is filed as functional.
For the next experiment, the target named is T2, Coagulation factor XII (Homo sapiens, UniProt P00748).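 Further: activated factor XIIa alpha cleaving a fluorogenic AMC peptide substrate; inhibitor potency from loss of enzyme activity.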
T2 sequence (P00748 whole entry): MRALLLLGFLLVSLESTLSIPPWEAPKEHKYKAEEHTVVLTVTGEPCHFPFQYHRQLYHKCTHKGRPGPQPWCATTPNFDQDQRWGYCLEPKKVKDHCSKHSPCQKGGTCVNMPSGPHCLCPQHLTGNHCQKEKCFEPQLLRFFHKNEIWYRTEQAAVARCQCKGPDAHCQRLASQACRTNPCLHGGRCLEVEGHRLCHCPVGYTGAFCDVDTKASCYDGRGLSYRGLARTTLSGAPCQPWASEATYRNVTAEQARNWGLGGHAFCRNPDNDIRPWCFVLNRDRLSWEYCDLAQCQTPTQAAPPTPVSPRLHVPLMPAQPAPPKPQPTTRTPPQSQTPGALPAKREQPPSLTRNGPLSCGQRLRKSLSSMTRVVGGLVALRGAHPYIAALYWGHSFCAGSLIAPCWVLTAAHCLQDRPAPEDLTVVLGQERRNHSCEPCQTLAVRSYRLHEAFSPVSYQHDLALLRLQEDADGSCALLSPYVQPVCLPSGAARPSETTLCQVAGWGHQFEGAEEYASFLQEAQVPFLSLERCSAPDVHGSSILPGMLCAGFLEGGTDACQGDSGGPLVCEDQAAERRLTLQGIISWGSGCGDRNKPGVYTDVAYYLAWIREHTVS
Format: functional.

The next experiment deals with Cytochrome P450 2C19 (Homo sapiens, UniProt P33261). The experiment is described as follows: Cytochrome panel assay with activity outcomes. Panel member name: p450-cyp2c19 Compounds with AC50 equal or less than 10 uM are considered active. Conditions: read-out: AC50. It is filed as functional.
Chain of Cytochrome P450 2C19 (P33261 whole entry): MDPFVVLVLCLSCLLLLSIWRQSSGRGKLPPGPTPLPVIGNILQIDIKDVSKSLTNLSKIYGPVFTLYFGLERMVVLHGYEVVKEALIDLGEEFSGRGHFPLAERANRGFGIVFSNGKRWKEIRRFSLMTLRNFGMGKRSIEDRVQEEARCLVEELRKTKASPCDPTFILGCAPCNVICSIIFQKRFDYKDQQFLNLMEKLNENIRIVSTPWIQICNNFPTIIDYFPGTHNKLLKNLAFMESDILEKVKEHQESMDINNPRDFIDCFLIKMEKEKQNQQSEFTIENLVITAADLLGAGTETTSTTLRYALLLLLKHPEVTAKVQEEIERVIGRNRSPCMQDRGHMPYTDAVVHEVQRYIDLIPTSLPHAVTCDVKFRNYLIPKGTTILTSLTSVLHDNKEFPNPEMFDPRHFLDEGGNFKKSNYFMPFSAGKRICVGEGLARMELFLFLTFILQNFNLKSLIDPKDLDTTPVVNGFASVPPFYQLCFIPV
The next experiment deals with T3, Cytochrome P450 1A2 (Homo sapiens, UniProt P05177).
T3 sequence (P05177 whole entry): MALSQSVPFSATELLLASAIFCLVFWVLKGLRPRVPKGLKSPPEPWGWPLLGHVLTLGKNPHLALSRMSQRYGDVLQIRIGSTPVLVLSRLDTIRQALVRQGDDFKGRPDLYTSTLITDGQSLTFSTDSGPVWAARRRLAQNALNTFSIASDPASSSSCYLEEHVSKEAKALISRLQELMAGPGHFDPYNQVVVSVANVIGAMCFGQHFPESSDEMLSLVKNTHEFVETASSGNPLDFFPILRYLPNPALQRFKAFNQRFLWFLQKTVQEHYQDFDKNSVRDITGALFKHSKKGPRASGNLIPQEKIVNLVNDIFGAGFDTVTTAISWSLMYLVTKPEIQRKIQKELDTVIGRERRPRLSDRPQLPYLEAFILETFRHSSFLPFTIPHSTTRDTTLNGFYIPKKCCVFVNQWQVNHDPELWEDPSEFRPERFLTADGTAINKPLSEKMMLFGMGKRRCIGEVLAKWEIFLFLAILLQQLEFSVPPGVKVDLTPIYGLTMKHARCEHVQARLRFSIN

The nature of experiment [11]: viability of uninfected HEp-2 cells – cell-based, HTS, cytotoxicity control for RSV inhibitor project, dose response (AID 2410). It is filed as functional. Particulars: human respiratory syncytial virus.
Experiment [12] in a line: luciferase reporter signal suppression in cells – H4 neuroglioma cells, luminescence, dose response (AID 1990). It is filed as functional, cell-based.
A short description of experiment [13]: Luminescence Cell-Based Dose Response HTS to Identify Inhibitors of 5'UTR Stem-Loop Driven Prion Protein mRNA Translation in H4 Neuroglioblastoma Cells. [Related pubchem assays: 1827 (Project Summary), 1813 (Primary HTS)]. It is filed as functional.
Experiment [14] in a line: alpha-synuclein stem-loop luciferase translation blockers – H4 neuroglioma cells, luminescence, confirmation (AID 1988). It is filed as functional, cell-based.
For experiment [15], the target named is T4, Calpain-2 catalytic subunit (Sus scrofa, UniProt P43367).
T4 sequence (P43367 whole entry): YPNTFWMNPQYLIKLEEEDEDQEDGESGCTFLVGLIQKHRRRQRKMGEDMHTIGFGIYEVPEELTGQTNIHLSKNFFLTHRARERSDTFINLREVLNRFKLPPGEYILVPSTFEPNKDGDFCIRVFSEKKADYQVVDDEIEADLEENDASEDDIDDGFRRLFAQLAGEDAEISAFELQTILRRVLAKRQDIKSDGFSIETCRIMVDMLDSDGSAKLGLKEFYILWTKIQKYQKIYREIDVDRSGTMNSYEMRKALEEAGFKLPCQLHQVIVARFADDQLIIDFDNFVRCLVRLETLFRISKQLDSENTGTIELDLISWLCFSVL
Briefly: m-calpain protease blockers, concentration series – biochemical, fluorogenic peptide substrate, dose response (AID 1420). It is filed as functional.

Experiment [16] has as its target T5, Carboxy-terminal domain RNA polymerase II polypeptide A small phosphatase 1 (Homo sapiens, UniProt Q9GZU7).
T5 sequence (Q9GZU7 whole entry): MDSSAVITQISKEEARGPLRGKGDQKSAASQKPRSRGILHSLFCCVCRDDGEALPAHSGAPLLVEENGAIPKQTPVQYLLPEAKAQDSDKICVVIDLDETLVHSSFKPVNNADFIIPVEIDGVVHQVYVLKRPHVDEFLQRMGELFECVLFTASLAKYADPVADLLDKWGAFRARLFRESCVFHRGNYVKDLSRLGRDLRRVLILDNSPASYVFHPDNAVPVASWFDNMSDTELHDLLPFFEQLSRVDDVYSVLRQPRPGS
The experiment is described as follows: CTDSP1 inhibitors, concentration-response, biochemical, absorbance readout, ultra-high-throughput screen actives (AID 540297). Format: functional.

Chain of Beta-2 adrenergic receptor (P07550 whole entry): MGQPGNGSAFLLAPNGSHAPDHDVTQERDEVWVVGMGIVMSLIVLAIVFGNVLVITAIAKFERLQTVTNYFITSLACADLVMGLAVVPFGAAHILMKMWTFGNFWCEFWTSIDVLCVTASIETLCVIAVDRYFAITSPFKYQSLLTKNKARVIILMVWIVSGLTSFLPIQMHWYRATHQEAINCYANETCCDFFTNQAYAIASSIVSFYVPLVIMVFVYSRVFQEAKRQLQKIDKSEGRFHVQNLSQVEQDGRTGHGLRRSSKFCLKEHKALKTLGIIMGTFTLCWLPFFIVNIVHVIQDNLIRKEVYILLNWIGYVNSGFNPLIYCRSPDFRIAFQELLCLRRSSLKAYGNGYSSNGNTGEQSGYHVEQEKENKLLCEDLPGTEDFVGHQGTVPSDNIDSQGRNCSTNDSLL

As for `COc1ccccc1N(O)C1CC(=O)N(c2ccc(F)cc2)C1=O` (stereo not given), the IC50 on Genome polyprotein is 62 µM (active).

For the compound `N#CC1=C(N)OC2=C(CCc3ccccc32)C1c1ccccc1` (stereo not given), the EC50 with BJ [1] is 0.645 µM (inconclusive); in the experiment on BJ [2], 13.5 µM (active); with BJ [3], 0.689 µM (inconclusive); in experiment [4], 0.61 µM (active); in experiment [7] it was 52.5 µM (inactive). The IC50 in the experiment on Vero [5] was > 25 µM (active). Further, the CC50 with Vero [6] was 0.17 µM (active).

For `CCOC(=O)c1nc(NNC(=O)c2ccc([N+](=O)[O-])cc2)sc1C`, the half-maximal effective concentration (EC50) in [8] is 30.9 µM (active); in [9], 2.62 µM (active). The IC50 in experiment [10] was 9.91 µM (active). Further, the AC50 with INS1 is 2.7 µM (active).

Regarding `Cc1cc(OC(=O)c2ccc(Cl)cc2Cl)nc(C)n1`, at Coagulation factor XII, the IC50 was > 50 µM (inconclusive). For the same compound, the AC50 at Cytochrome P450 2C19 and at Cytochrome P450 1A2 was 28.2 µM (inconclusive) each time.

In the case of `O=C(C(c1ccccc1)c1ccccc1)N1CCN(c2ccccn2)CC1`, the EC50 in experiment [7] is 0.0379 µM (active).

Turning to `c1ccc(-c2csc3ncnc(NCC4COc5ccccc5O4)c23)cc1` (stereo not given), the IC50 at Coagulation factor XII is > 50 µM (inactive). Further, the AC50 in the experiment on INS1 is 1.41 µM (active).

As for `CCOc1ccccc1CNC(=O)c1cc2oc3ccccc3c2n1CC`, the CC50 is 13.8 µM (active) in experiment [11] and > 25 µM (active) in the experiment with Vero [6]. Besides, the EC50 in [12] is > 120 µM (not active); in experiment [13] it was 16.6 µM (active); in [14], 14.9 µM (active). Also, the IC50 in the experiment on Vero [5] is > 12.5 µM (active); in the experiment “cells”, 42.3 µM (active).

Regarding `CCOc1ccc2nc(NC(=O)CSc3nc4cccnc4n3C)sc2c1`, the EC50 in experiment [7] is 2.44 µM (active).

Regarding `O=C1CC(c2ccccc2)(c2ccccc2)c2ccccc21`, the EC50 in experiment [7] was 17.1 µM (inactive).

Turning to `C=CCNC(=S)N/N=C/c1ccc(C)c([N+](=O)[O-])c1`, the IC50 in [15] is 3.49 µM (not active); on Coagulation factor XII, > 50 µM (inactive).

As to `O=C(O)c1ccc(Oc2ccc(S(=O)(=O)c3ccc(C(=O)O)c(C(=O)O)c3)cc2)cc1`, the IC50 in [16] was 6.97 µM (active).

(Values after ChEMBL document CHEMBL1201862, “PubChem BioAssay data set” (2004).)
